Assay results as given in ChEMBL document CHEMBL4387741, “Optimization of novel reversible Bruton's tyrosine kinase inhibitors identified using Tethering-fragment-based screens” (Bioorg Med Chem, 2019).

Molecular target: Tyrosine-protein kinase BTK (Homo sapiens, UniProt Q06187)
Experiment: biochemical
Description: Reversible inhibition of recombinant full-length N-terminal 6-His-tagged human BTK expressed in baculovirus infected Sf21 insect cells using fluorescent-labeled polyGAT peptide as substrate incubated for 30 mins by TR-FRET assay

Sequence of Tyrosine-protein kinase BTK (Q06187 whole entry): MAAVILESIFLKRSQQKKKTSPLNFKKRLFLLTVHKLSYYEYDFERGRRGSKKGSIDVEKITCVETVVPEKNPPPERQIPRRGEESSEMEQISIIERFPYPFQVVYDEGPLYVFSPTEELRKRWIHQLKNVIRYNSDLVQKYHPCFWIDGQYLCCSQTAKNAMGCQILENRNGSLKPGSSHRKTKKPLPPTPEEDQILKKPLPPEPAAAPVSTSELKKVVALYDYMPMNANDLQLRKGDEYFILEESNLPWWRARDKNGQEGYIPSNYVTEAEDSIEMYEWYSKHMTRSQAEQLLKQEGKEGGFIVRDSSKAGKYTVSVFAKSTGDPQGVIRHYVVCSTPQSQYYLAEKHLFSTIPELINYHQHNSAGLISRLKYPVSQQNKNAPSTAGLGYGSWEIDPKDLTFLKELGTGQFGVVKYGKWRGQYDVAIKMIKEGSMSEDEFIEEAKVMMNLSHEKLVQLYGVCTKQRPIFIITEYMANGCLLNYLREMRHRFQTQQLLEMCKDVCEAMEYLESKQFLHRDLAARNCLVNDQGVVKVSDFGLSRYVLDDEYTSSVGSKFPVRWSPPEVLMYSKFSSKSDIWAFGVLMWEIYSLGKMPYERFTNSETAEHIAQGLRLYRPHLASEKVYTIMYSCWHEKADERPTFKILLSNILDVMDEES

Point of comparison: `O=C(Nc1cccc(C2CCCN(c3ncnc4[nH]ccc34)C2)c1)Nc1ccccc1F` (stereo unspecified), IC50 0.5 µM. Against it:
- O=C(Nc1cccnc1)Nc1cccc(C2CCCN(c3ncnc4[nH]ccc34)C2)c1 (stereo unspecified) — 6.4-fold higher, 3.2 µM
- O=C(Nc1ccccc1)Nc1cccc(CCNc2ncnc3[nH]ccc23)c1 — 17-fold higher, 8.3 µM
- O=C(NCCC#CCCNc1ncnc2[nH]ccc12)Nc1ccccc1 — 38-fold higher, 19 µM
- O=C(Nc1cccc(C2CCCN(c3ncnc4[nH]ccc34)C2)c1)Nc1ccccc1C(F)(F)F (stereo unspecified) — within 1.5-fold, 0.46 µM
- N#C/N=C(\Nc1ccccc1)Nc1cccc(C2CCCN(c3ncnc4[nH]ccc34)C2)c1 (stereo unspecified) — 140-fold higher, 68 µM
- O=S(=O)(Nc1cccc(C2CCCN(c3ncnc4[nH]ccc34)C2)c1)c1ccccc1 (stereo unspecified) — 38-fold higher, 19 µM
- O=C(Nc1cccc(C2CCCN(c3ncnc4[nH]ccc34)C2)c1)Nc1ccccc1N1CCCCC1 (racemic) — within 1.5-fold, 0.55 µM
- O=c1c(Nc2ccccc2)c(Nc2cccc(C3CCCN(c4ncnc5[nH]ccc45)C3)c2)c1=O (stereo unspecified) — 88-fold higher, 44 µM
- O=C(NCCCC1CCCN(c2ncnc3[nH]ccc23)C1)Nc1ccccc1 (racemic) — 4-fold higher, 2 µM
- O=C(Nc1cccc(C2CCCN(c3ncnc4[nH]ccc34)C2)c1)Nc1ccccn1 (stereo unspecified) — 5.4-fold higher, 2.7 µM
- O=C(Nc1cccc(C2CCCN(c3ncnc4[nH]ccc34)C2)c1)Nc1ccccc1C1CCCC1 (racemic) — 5-fold lower, 0.1 µM
- O=C(Nc1cccc(C2CCCN(c3ncnc4[nH]ccc34)C2)c1)Nc1ccccc1C1CC1 (racemic) — 2.5-fold lower, 0.2 µM
- O=C(Nc1cccc(Cl)c1)Nc1cccc(C2CCCN(c3ncnc4[nH]ccc34)C2)c1 (stereo unspecified) — 3.6-fold higher, 1.8 µM
- O=C(Cc1ccccc1)Nc1cccc(C2CCCN(c3ncnc4[nH]ccc34)C2)c1 (stereo unspecified) — 90-fold higher, 45 µM
- O=C(Nc1ccc(F)cc1)Nc1cccc(C2CCCN(c3ncnc4[nH]ccc34)C2)c1 (stereo unspecified) — 2.6-fold higher, 1.3 µM
- O=C(NCCc1cccc(Nc2ncnc3[nH]ccc23)c1)Nc1ccccc1 — 24-fold higher, 12 µM
- CC(C)(C#N)c1ccccc1NC(=O)Nc1cccc(C2CCCN(c3ncnc4[nH]ccc34)C2)c1 (racemic) — higher, > 10 µM
- O=C(Nc1ccc(Cl)cc1)Nc1cccc(C2CCCN(c3ncnc4[nH]ccc34)C2)c1 (stereo unspecified) — 4.6-fold higher, 2.3 µM
- O=C(Nc1cccc(F)c1)Nc1cccc(C2CCCN(c3ncnc4[nH]ccc34)C2)c1 (stereo unspecified) — 2.4-fold higher, 1.2 µM
- O=C(NCCCCCCNc1ncnc2[nH]ccc12)Nc1ccccc1 — 22-fold higher, 11 µM
- O=C(Nc1cccc(C2CCCN(c3ncnc4[nH]ccc34)C2)c1)c1ccccc1 (stereo unspecified) — 9.8-fold higher, 4.9 µM
- O=C(Nc1ccncc1)Nc1cccc(C2CCCN(c3ncnc4[nH]ccc34)C2)c1 (stereo unspecified) — higher, > 10 µM
- CC(C)(C)c1ccccc1NC(=O)Nc1cccc(C2CCCN(c3ncnc4[nH]ccc34)C2)c1 (racemic) — 3.6-fold lower, 0.14 µM
- c1cc(Nc2nc3ccccc3[nH]2)cc(C2CCCN(c3ncnc4[nH]ccc34)C2)c1 (stereo unspecified) — 8.2-fold higher, 4.1 µM
- O=C(NCCCCCNc1ncnc2[nH]ccc12)Nc1ccccc1 — 32-fold higher, 16 µM
